Residues, ends and D or L forms follow the SMILES beside them.
How the values were obtained:
Experiment in all cases: In vitro cytotoxic activity, MTT assay, 72 hours
Format in all cases: cell-based, human
[1] = test system: MCF7 (breast)
Protocol: (§1) The cytotoxic activity of synthesized peptides was tested on six human tumor cell lines namely MCF7 (breast), U373 (glioblastoma), PTC, (colon), L132 (lung), Su.86.86 (pancreas), and KB (oral). The tumor cells were collected at exponential growth phase and resuspended in medium (1.5 x 10^6 cells/ml in RPMI 1640 containing 10% FBS). 150µL of medium was added to the wells of a 96-well tissue culture plate (Nunc, Denmark) followed by 30µl of cell suspension. The plate was left in an incubator (37°C, 5% CO2) overnight. 20µl of the peptide (100 pM to 10 µM concentration) was added to marked wells of the 96-well plate. Each concentration was plated in triplicate. 20µl of medium alone was added to control wells while wells without cells served as blanks. A total volume of 200µL was ensured in each well and plate was left in incubator (37°C, 5% CO2). After 72 hours of incubation an MTT assay was performed and percentage cytotoxicity was calculated with respect to control cells.

[2] = test system: L132 (lung)
Protocol: as §1

[3] = test system: PTC, (colon)
Protocol: as §1

[4] = test system: U373 (glioblastoma)
Protocol: as §1

[5] = test system: Su.86.86 (pancreas)
Protocol: as §1

CC(C)C[C@H](NC(=O)[C@@H](Cc1c[nH]c2ccccc12)NC(=O)[C@H](Cc1ccccc1)NC(=O)[C@@H](Cc1c[nH]c2ccccc12)NC(=O)[C@H](CCC(N)=O)NC(=O)[C@@H](Cc1ccccc1)NC(=O)[C@@H]1CCCN1C(=O)[C@H](CCCCN)NC(=O)[C@@H]1CCCN1C(=O)[C@H](N)CCCNC(=N)N)C(=O)NC1(C(N)=O)CCCC1 [SEQ ID NO: 5, D-Arg-Pro-Lys-Pro-D-Phe-Gln-D-Trp-Phe-D-Trp-Leu-Ac5c-NH2] (HELM PEPTIDE1{[dR].P.K.P.[dF].Q.[dW].F.[dW].L.[O=C(C1(N[*:1])CCCC1)[*:2]].[am]}$$$$V2.0)
Percentage cytotoxicity at different concentrations ([1]; MCF-7, 100pM): Nil
Percentage cytotoxicity at different concentrations ([1]; MCF-7, 1nM): 2.4 ± 1.2%
Percentage cytotoxicity at different concentrations ([1]; MCF-7, 10nM): 7.5 ± 1.5%
Percentage cytotoxicity at different concentrations ([1]; MCF-7, 100nM): 8.6 ± 1.6%
Percentage cytotoxicity at different concentrations ([1]; MCF-7, 1µM): 12.4 ± 2.6%
Percentage cytotoxicity at different concentrations ([1]; MCF-7, 10µM): 18.4 ± 6.4%
Percentage cytotoxicity at different concentrations ([2]; 100pM): 18±3.4%
Percentage cytotoxicity at different concentrations ([2]; 1nM): 15 ± 5.8%
Percentage cytotoxicity at different concentrations ([2]; 10nM): 19 ± 3.3%
Percentage cytotoxicity at different concentrations ([2]; 100nM): 21 ± 1.2%
Percentage cytotoxicity at different concentrations ([2]; 1µM): 20 ± 2.3%
Percentage cytotoxicity at different concentrations ([2]; 10µM): 23 ± 2.3%
Percentage cytotoxicity at different concentrations ([3]; 100pM): Nil
Percentage cytotoxicity at different concentrations ([3]; 1nM): 3.1 ± 0.5%
Percentage cytotoxicity at different concentrations ([3]; 10nM): 3.1 ± 1.9%
Percentage cytotoxicity at different concentrations ([3]; 100nM): 6.7 ± 1.3%
Percentage cytotoxicity at different concentrations ([3]; 1µM): 25.5 ± 4.8%
Percentage cytotoxicity at different concentrations ([3]; 10µM): 35.5 ± 4.8%
Percentage cytotoxicity at different concentrations ([4]; 100pM): 3.7± 0.5%
Percentage cytotoxicity at different concentrations ([4]; 1nM): 3.1 ± 0.5%
Percentage cytotoxicity at different concentrations ([4]; 10nM): 5.0 ± 0.7%
Percentage cytotoxicity at different concentrations ([4]; 100nM): 4.5 ± 0.5%
Percentage cytotoxicity at different concentrations ([4]; 1µM): 17.06 ± 1.9%
Percentage cytotoxicity at different concentrations ([4]; 10µM): 37.2 ± 5.3%
Percentage cytotoxicity at different concentrations ([5]; Su8686, 100pM): Nil
Percentage cytotoxicity at different concentrations ([5]; Su8686, 1nM): 3 ± 0.3%
Percentage cytotoxicity at different concentrations ([5]; Su8686, 10nM): 12 ± 2.8%
Percentage cytotoxicity at different concentrations ([5]; Su8686, 100nM): 9 ± 3.8%
Percentage cytotoxicity at different concentrations ([5]; Su8686, 1µM): 22 ± 3.3%
Percentage cytotoxicity at different concentrations ([5]; Su8686, 10µM): 25 ± 4.3%

Source: patent EP1337551B1, “SUBSTANCE P ANALOGS FOR THE TREATMENT OF CANCER” (DABUR PHARMA LTD., priority 2000, dated 2002)
